Source: patent US20020022742A1, “Salt forms of an HIV protease inhibitor” (priority 2000, published 2002)
≈ marks a conversion by molar mass, not a printed value.

Key:
HIV protease = HIV protease (Human immunodeficiency virus type 1 group M subtype B, UniProt P04585); assay: HIV protease inhibition (test only mentioned); type: biochemical; settings: stated in words only, no value given
HIV-1 (RF) = assay: HIV RNA assay, microplate based compound evaluation in HIV-1 infected MT-2 cells; type: cell-based; settings: Human immunodeficiency virus 1, MT2, 72 h; HIV-1 (RF) infected MT-2 cells, 3 days of culture; virus dilutions selected to result in this value (standardization of inoculum); read-out: IC90 (concentration of compound required to reduce the HIV RNA level by 90%)

IC90 (HIV-1 (RF)) [µg/mL]	Compound	HIV protease inhibitory activity (HIV protease)
	CC(C)CN(C[C@@H](O)[C@H](Cc1ccccc1)NC(=O)[C@@H](NC(=O)CNCc1cccc(F)c1)C(C)(C)C)S(=O)(=O)c1ccc(N)cc1 [Compound A]	potent HIV protease inhibitor
0.2 (≈ 0.947 µM)	Nc1ccn([C@H]2CC[C@@H](CO)O2)c(=O)n1 [ddC, dideoxycytidine]	
